Assay results: patent US10988459B2 (priority 2015, dated 2021)
pKi: −log10 of the molar value.

Target: human RIP1 kinase domain (2-375) (Homo sapiens (Human), UniProt Q13546)
Assay: biochemical
Format: biochemical
Conditions: Table 1; apparent Ki (Morrison tight-binding fit); 50 nM RIP1 kinase domain, 50 uM ATP, 2 hours incubation; read-out: RIP1 Ki
How it was run: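 50 nM purified kinase domain from baculovirus-infected insect cells, incubated 2 h with compound in 50 mM Hepes pH 7.5, 30 mM MgCl2, 1 mM DTT, 50 uM ATP, 0.002% Brij-35, 0.5% DMSO. ADP formation read by Transcreener FP at 633 nm excitation. Ki^app fitted with the Morrison tight-binding equation.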

Sequence of human RIP1 kinase domain (2-375) (Q13546 2-375): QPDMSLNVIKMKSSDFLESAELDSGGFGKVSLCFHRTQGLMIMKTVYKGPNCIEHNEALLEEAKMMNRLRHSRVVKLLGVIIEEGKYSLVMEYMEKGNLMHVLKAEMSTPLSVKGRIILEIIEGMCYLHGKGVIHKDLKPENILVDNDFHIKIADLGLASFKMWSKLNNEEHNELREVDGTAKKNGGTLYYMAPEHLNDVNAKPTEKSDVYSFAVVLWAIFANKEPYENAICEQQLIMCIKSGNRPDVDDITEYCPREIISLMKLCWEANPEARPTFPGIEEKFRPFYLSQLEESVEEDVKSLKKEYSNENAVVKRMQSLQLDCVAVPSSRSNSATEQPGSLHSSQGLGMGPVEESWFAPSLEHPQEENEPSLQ

Row | SMILES | pKi
1 | CN1C(=O)[C@@H](NC(=O)c2cc3n(n2)CCCN(c2ccccc2)C3)COc2ccccc21 [Example 6, N-[(3S)-5-methyl-4-oxo-2,3-dihydro-1,5-benzoxazepin-3-yl]-5-phenyl-4,6,7,8-tetrahydro pyrazolo[1,5-a][1,4]diazepine-2-carboxamide] | 6.43
2 | CC1CCc2[nH]nc(C(=O)N[C@H]3COc4ccccc4NC3=O)c2C1 (stereo partly drawn) [Example 57, 5-methyl-N-((S)-4-oxo-2,3,4,5-tetrahydrobenzo[b][1,4]oxazepin-3-yl)-4,5,6,7-tetrahydro-1H-indazole-3-carboxamide] | 6.56
3 | Cc1cc2n(n1)CCC(NC(=O)c1ncn(Cc3ccccc3)n1)C(=O)N2C (stereo not drawn) [Example 72, 1-benzyl-N-(2,4-dimethyl-5-oxo-5,6,7,8-tetrahydro-4H-pyrazolo[1,5-a][1,3]diazepin-6-yl)-1H-1,2,4-triazole-3-carboxamide] | 7.17
4 | CN1C(=O)[C@@H](NC(=O)c2nnc3ccc(Cl)nn23)COc2ccccc21 [Example 52, (S)-6-chloro-N-(5-methyl-4-oxo-2,3,4,5-tetrahydrobenzo[b][1,4]oxazepin-3-yl)-[l,2,4]triazolo[4,3-b]pyridazinc-3-carboxamide] | 5.92

Same assay, conditions: Table 5; apparent Ki (Morrison tight-binding fit); 50 nM RIP1 kinase domain, 50 uM ATP, 2 hours incubation; read-out: Ki

Row | pKi | SMILES
5 | 6.81 | CN1C(=O)[C@@H](NC(=O)c2ncn(Cc3ccccc3)n2)CCn2nc(CN3CCOCC3)cc21 [Example 779, (S)-1-benzyl-N-(4-methyl-2-(morpholinomethyl)-5-oxo-5,6,7,8-tetrahydro-4H-pyrazolo[1,5-a][1,3]diazepin-6-yl)-1H-1,2,4-triazole-3-carboxamide]
6 | 6.63 | CN1C(=O)[C@@H](NC(=O)c2ncn(Cc3ccccc3)n2)CCn2nc(CCN3CC(F)C3)cc21 [Example 769]
7 | 6.81 | CN1C(=O)[C@@H](NC(=O)c2ncn(Cc3ccccc3)n2)CCn2nc(CN3CCOCC3)cc21 (single isomer, unassigned) [Example 720]

Same assay, conditions: human RIP1 kinase domain (2-375), 50 uM ATP, 2 hours incubation, Transcreener ADP assay; read-out: RIP1 Ki

Row | pKi | SMILES
8 | 7.78 | Cc1cc(F)c2c(c1)OC[C@H](NC(=O)c1n[nH]c3c1C[C@@H](C(F)(F)F)CC3)C(=O)N2 [Example 88, (S)—N—((S)-6-fluoro-8-methyl-4-oxo-2,3,4,5-tetrahydrobenzo[b][1,4]oxazepin-3-yl)-5-(trifluoromethyl)-4,5,6,7-tetrahydro-1H-indazole-3-carboxamide]
9 | 6.57 | CN1C(=O)[C@@H](NC(=O)c2cc3c(cn2)CO[C@@]3(C)CC(F)(F)F)COc2ccccc21 [Example 168, (S)-1-methyl-N-((S)-5-methyl-4-oxo-2,3,4,5-tetrahydrobenzo[b][1,4]oxazepin-3-yl)-1-(2,2,2-trifluoroethyl)-1,3-dihydrofuro[3,4-c]pyridine-6-carboxamide]
10 | 6.42 | CN1C(=O)C(NC(=O)c2nnc(Cc3ccccc3)[nH]2)CCCn2nccc21 (stereo not drawn) [Example 93, 5-benzyl-N-(4-methyl-5-oxo-4,5,6,7,8,9-hexahydropyrazolo[1,5-a][1,3]diazocin-6-yl)-4H-1,2,4-triazole-3-carboxamide]

Same assay, conditions: human RIP1 kinase domain (2-375), Transcreener ADP assay, 50 uM ATP, 2 hours incubation; read-out: RIP1 Ki

Row | pKi | SMILES
11 | 6.09 | CN1C(=O)[C@@H](NC(=O)c2ncn(CC3CC3(F)F)n2)CCn2nc(C3CC3)cc21 (stereo in doubt) [Example 291, (S)—N-(2-cyclopropyl-4-methyl-5-oxo-5,6,7,8-tetrahydro-4H-pyrazolo[1,5-a][1,3]diazepin-6-yl)-1-((2,2-difluorocyclopropyl)methyl)-1H-1,2,4-triazole-3-carboxamide]
12 | 5.85 | CN1C(=O)C(NC(=O)c2cn(Cc3ccccc3)nn2)CCn2nc(C3CCOCC3)cc21 (stereo not drawn) [Example 237, 1-benzyl-N-(4-methyl-5-oxo-2-(tetrahydro-2H-pyran-4-yl)-5,6,7,8-tetrahydro-4H-pyrazolo[1,5-a][1,3]diazepin-6-yl)-1H-1,2,3-triazole-4-carboxamide]
13 | 7.03 | CN1C(=O)[C@H](NC(=O)c2nnc(Cc3ccccc3)[nH]2)CCn2nc(C3CC3(F)F)cc21 (stereo partly drawn) [Example 286, 5-benzyl-N-((6R)-2-(2,2-difluorocyclopropyl)-4-methyl-5-oxo-5,6,7,8-tetrahydro-4H-pyrazolo[1,5-a][1,3]diazepin-6-yl)-4H-1,2,4-triazole-3-carboxamide]
14 | 5.23 | CN1C(=O)[C@@H](NC(=O)c2ncn(Cc3ccc(F)c(F)c3)n2)CCn2nc([C@H]3CC3(F)F)cc21 [Example 313, 1-(3,4-difluorobenzyl)-N—((S)-2-((R)-2,2-difluorocyclopropyl)-4-methyl-5-oxo-5,6,7,8-tetrahydro-4H-pyrazolo[1,5-a][1,3]diazepin-6-yl)-1H-1,2,4-triazole-3-carboxamide]
15 | 7.06 | CN1C(=O)[C@H](NC(=O)c2ncn(Cc3ccccc3)n2)CCn2nc(C3CC3(F)F)cc21 (stereo partly drawn) [Example 284, 1-benzyl-N-((6R)-2-(2,2-difluorocyclopropyl)-4-methyl-5-oxo-5,6,7,8-tetrahydro-4H-pyrazolo[1,5-a][1,3]diazepin-6-yl)-1H-1,2,4-triazole-3-carboxamide]

Same assay, conditions: read-out: RIP1 Ki

Row | SMILES | pKi
16 | CN1C(=O)[C@@H](NC(=O)c2n[nH]c3c2CC(C(C)(C)C)CC3)COc2ccccc21 (stereo partly drawn) [Example 3, 5-(tert-butyl)-N—((S)-5-methyl-4-oxo-2,3,4,5-tetrahydrobenzo[b][1,4]oxazepin-3-yl)-4,5,6,7-tetrahydro-1H-indazole-3-carboxamide] | 7.16

Same assay, conditions: tight-binding apparent inhibition constant; human RIP1 kinase domain (2-375) 50 nM, 50 uM ATP, 2 hours; read-out: Ki

Row | pKi | SMILES
17 | 5.89 | Cc1cc2n(n1)CC[C@H](NC(=O)c1ncn(CC3CCCO3)n1)C(=O)N2C (stereo partly drawn) [Example 474, N-(6S)-2,4-dimethyl-5-oxo-7,8-dihydro-6H-pyrazolo[1,5-a][1,3]diazepin-6-yl-1-(tetrahydrofuran-2-ylmethyl)-1,2,4-triazole-3-carboxamide]
18 | 5.92 | CN1C(=O)[C@@H](NC(=O)c2nc3n(n2)CCC32CCOC2)COc2ccccc21 (stereo partly drawn) [Example 645, N-[(3S)-5-methyl-4-oxo-2,3-dihydro-1,5-benzoxazepin-3-yl]spiro[5,6-dihydropyrrolo[1,2-b][1,2,4]triazole-7,3′-tetrahydrofuran]-2-carboxamide]
19 | 6.74 | Cc1cc2n(n1)CC[C@H](NC(=O)c1ncn(C[C@H]3C[C@@H](C(F)(F)F)C3)n1)C(=O)N2C [Example 492]
20 | 7.46 | CN1C(=O)[C@H](NC(=O)c2ncn(Cc3ccccc3F)n2)CCn2cncc21 [Example 599, 1-[(2-fluorophenyl)methyl]-N-(3R)-1-methyl-2-oxo-4,5-dihydro-3H-imidazo[1,5-a][1,3]diazepin-3-yl-1,2,4-triazole-3-carboxamide]
21 | 6.60 | CC[C@@]1(C)OCc2cnc(C(=O)N[C@H]3CCn4nc(C)cc4N(C)C3=O)nc21 (racemic) [Example 687, rac-(7R)-7-ethyl-7-methyl-N-[rac-(6S)-2,4-dimethyl-5-oxo-7,8-dihydro-6H-pyrazolo[1,5-a][1,3]diazepin-6-yl]-5H-furo[3,4-d]pyrimidine-2-carboxamide]
22 | 6.13 | Cc1ncccc1Cn1cnc(C(=O)N[C@H]2CCn3nc(C4CC4)cc3N(C)C2=O)n1 [Example 665]
23 | 6.38 | O=C(N[C@H]1CCc2cc(F)cc(F)c2NC1=O)c1nc2n(n1)CCO[C@@H]2c1ccccc1 [Example 639, (8R)-8-phenyl-N-[(3S)-7,9-difluoro-2-oxo-1,3,4,5-tetrahydro-1-benzazepin-3-yl]-6,8-dihydro-5H-[1,2,4]triazolo[5,1-c][1,4]oxazine-2-carboxamide]
24 | 7.96 | Cc1cc2n(n1)CC[C@H](NC(=O)c1ncn(Cc3cccc(F)c3)n1)C(=O)N2C [Example 519, 1-[(3-fluorophenyl)methyl]-N-(6S)-2,4-dimethyl-5-oxo-7,8-dihydro-6H-pyrazolo[1,5-a][1,3]diazepin-6-yl-1,2,4-triazole-3-carboxamide]

More lines, now with the values behind:

Row | SMILES | pKi
25 | CC(C)c1cccc2nc(C(=O)N[C@H]3CCc4cc(F)cc(F)c4NC3=O)nn12 [Example 420, (S)—N-(7,9-difluoro-2-oxo-2,3,4,5-tetrahydro-1H-benzo[b]azepin-3-yl)-5-isopropyl-[1,2,4]triazolo[1,5-a]pyridine-2-carboxamide] | 8.33
26 | CN1C(=O)[C@@H](NC(=O)c2nc3cccc(-c4ccoc4)n3n2)COc2ccccc21 [Example 399, (S)-5-(furan-3-yl)-N-(5-methyl-4-oxo-2,3,4,5-tetrahydrobenzo[b][1,4]oxazepin-3-yl)-[1,2, 4]triazolo[1,5-a]pyridine-2-carboxamide] | 8.35
27 | CN1C(=O)[C@@H](NC(=O)c2nc3n(n2)[C@H](c2ccccc2F)CC3)COc2ccccc21 [Example 467, (S)-5-(2-fluorophenyl)-N—((S)-5-methyl-4-oxo-2,3,4,5-tetrahydrobenzo[b][1,4]oxazepin-3-yl)-6,7-dihydro-5H-pyrrolo[1,2-b][1,2,4]triazole-2-carboxamide] | 7.24
28 | CN1C(=O)[C@@H](NC(=O)c2ncn(Cc3ccc(F)cc3F)n2)CCn2nccc21 (racemic) [Example 340, 1-[(2,4-difluorophenyl)methyl]-N-[rac-(6S)-4-methyl-5-oxo-7,8-dihydro-6H-pyrazolo[1,5-a][1,3]diazepin-6-yl]-1,2,4-triazole-3-carboxamide] | 7.89
29 | CC[C@@H]1CCCc2nc(C(=O)N[C@H]3COc4ccccc4N(C)C3=O)nn21 (racemic) [Example 402, (R)-5-ethyl-N—((S)-5-methyl-4-oxo-2,3,4,5-tetrahydrobenzo[b][1,4]oxazepin-3-yl)-5,6,7,8-tetrahydro-[1,2,4]triazolo[1,5-a]pyridine-2-carboxamide] | 8.06
30 | CN1C(=O)C(NC(=O)c2ncn(Cc3ccccc3)n2)CCn2nc(CN3CCC(F)(F)C3)cc21 (single isomer, unassigned) [Example 448, 1-benzyl-N-(2-((3,3-difluoropyrrolidin-1-yl)methyl)-4-methyl-5-oxo-5,6,7,8-tetrahydro-4H-pyrazolo[1,5-a][1,3]diazepin-6-yl)-1H-1,2,4-triazole-3-carboxamide] | 6.67
